According to US5340811A, “Isoquinoline-or quinoline-sulfonamide derivative and a pharmaceutical composition comprising the same” (priority 1990, dated 1994):
Where a name gives a salt, the structure may show the parent alone. Each block holds one compound with its values, some of them ahead of it.

Legend:
[1] = known from literature/patents; cited from earlier work
[2] = known from literature/patents; cited from earlier work; remark: listed apart in the source
trachea of a guinea pig = experiment: Effect on trachea in vivo: inhibition of histamine-induced tracheal contraction (modified Konzett-Rossler method); settings: for suppression of histamine-induced bronchial contraction: contraction induced by intravenous administration of 1 mg/kg of histamine (as printed in text); for inhibition in vivo at 1 mg/kg: Cavia porcellus, iv, 0.05 h, compound 1 mg/kg via femoral vein, histamine 20 μg/kg i.v. after 3 minutes, urethane anesthesia, n=3, non-salt compounds used as hydrochloride
Description: According to a modified method of Konzett-Rossler method [see J. Martinez et al, Bronchial Arterial Injections, vol. […] Urethane was intraperitoneally administered to male guinea pigs weighing 350 to 600 g (Hartley strain, Kuroda Junkei Dobutsu) in an amount of 1.5 g/kg of body weight to anesthetize the animals. Then, cannulae were inserted into the trachea and femoral vein of each animal under urethane anesthesia and fixed. […] Each of the above-mentioned compounds of the present invention was administered to guinea pigs through the femoral vein in an amount of 1 mg/kg of body weight. […] As a solvent for each compound, physiological saline was used. The number of the guinea pigs tested in each group was 3.

[3] = system: tracheal specimens excised from guinea pigs; experiment: Inhibitory effect on KCl-induced contraction of tracheal specimens excised from guinea pigs; format: cell-based, guinea pig; settings: Cavia porcellus; dose relaxing KCl (20 mM)-induced contraction to 50%; 37° C.; n=3; non-salt compounds used as hydrochloride; read-out: ED50 (KCl-induced contraction)
Description: According to a method in which tracheal specimens excised from guinea pigs were used (Takagi and Ozawa, "Yakubutsugaku Jikken (Experiments in Pharmacology)", pp.100-102, 1960, published by Nanzando Japan; and Fujiwara and Shibata, "Yakurigaku Kiso Jikenho (Methods of Fundamental Experiments in Pharmacology)" pp.131-134, 1982, published by Kyourin, Japan), relaxing effect of sulfonamide derivatives of the present invention on bronchial smooth muscle was examined. […] After the KCl-induced contraction became stable, each of the compounds of the present invention was dissolved in distilled water or physiological saline, and the compound solution was cumulatively added into the Magnus tube. The relaxing effect of each of the compounds of the present invention on contracted tracheal specimens was evaluated and a dose-response curve was obtained. A dose required for relaxing KCl-induced contraction to 50%, i.e., ED50 was calculated from the dose-response curve. […] The number of tracheal specimens in each group was 3.

[4] = system: tracheal specimens excised from guinea pigs; experiment: Inhibitory effect on PGF2α-induced contraction of tracheal specimens excised from guinea pigs; format: cell-based, guinea pig; settings: Cavia porcellus; dose relaxing PGF2α (final 1 μm)-induced contraction to 50%; n=3; non-salt compounds used as hydrochloride; read-out: PGF2α-induced contraction ED50 (Table 18)
Description: Tracheal specimens excised from male guinea pigs weighing 350 to 500 g (Hartley strain, Kuroda Junkei Dobutsu) were contracted in substantially the same manner as in Application Example 1 except that PGF2α (final concentration: 1 μm) was used instead of KCl. After the contraction of the tracheal specimens became stable, each of the compounds (hydrochloride) of the present invention was dissolved in distilled water or physiological saline, and the compound solution was cumulatively added into the Magnus tube in the same manner as in Application Example 1. The relaxing effect of each of the compounds of the present invention on the contracted specimens was evaluated and a dose-response curve was obtained. The dose required for relaxing PGF2α-induced contraction to 50%, i.e., ED50 was calculated form the dose-response curve. […] For comparison, the same procedure as described above was repeated except that aminophylline, comparative compound (1) and comparative compound (2) were individually used instead of the compound of the present invention, to obtain an ED50. The number of specimens in each group was 3.

Structure (SMILES): NC1CCCN(S(=O)(=O)c2cccc3cnccc23)C1 (stereo not shown) [1-(5-isoquinolinesulfonyl)-3-aminopiperidine]
bronchodilating activity [1]: bronchodilating activity
vasodilating activity [2]: vasodiletic activity

Structure (SMILES): O=S(=O)(NCCNCc1ccc2c(c1)OCO2)c1cccc2cnccc12 [(3), N-[2(3,4-methylenedioxybenzylamino)ethyl]-5-isoquinolinesulfonamide]
suppression of histamine-induced bronchial contraction (trachea of a guinea pig): 36%

Structure (SMILES): O=S(=O)(NCCN1CCN(Cc2ccc3c(c2)OCO3)CC1)c1cccc2cnccc12 [(30), 1-(5-isoquinolinesulfonylaminoethyl)-4-(3,4-methylenedioxybenzyl)piperazine]
inhibition in vivo at 1 mg/kg (trachea of a guinea pig): 31%

Structure (SMILES): O=S(=O)(NCCN1CCCN(Cc2ccc3c(c2)OCO3)CC1)c1cccc2cnccc12 [(31), 1-(5-isoquinolinesulfonylaminoethyl)-4-(3,4-methylenedioxybenzyl)homopiperazine]
inhibition in vivo at 1 mg/kg (trachea of a guinea pig): 35%

EC50 [3]: 27 µM
Structure (SMILES): O=S(=O)(NCCN1CCNCC1)c1cccc2c(O)nccc12 [(32), 1-(1-hydroxy-5-isoquinolinesulfonylaminoethyl) piperazine hydrochloride]

EC50 [3]: 24 µM
Structure (SMILES): O=S(=O)(NCCN1CCCNCC1)c1cccc2c(O)nccc12 [(33), 1-(1-hydroxy-5-isoquinolinesulfonylaminoethyl) homopiperazine hydrochloride]

EC50 [3]: 18 µM
Structure (SMILES): O=S(=O)(NCCN1CCCN(Cc2ccc3c(c2)OCO3)CC1)c1cccc2c(O)nccc12 [(35), hydrochloride]

Structure (SMILES): O=S(=O)(NCCN1CCCNCC1)c1ccc(Cl)c2ncccc12 [(36), 1-(8-chloro-5-quinolinesulfonylaminoethyl)homopiperazine]
inhibition in vivo at 1 mg/kg (trachea of a guinea pig): 22%

Structure (SMILES): O=S(=O)(NCCN1CCCN(Cc2ccc3c(c2)OCO3)CC1)c1ccc(Cl)c2ncccc12 [(38), 1-(8-chloro-5-quinolinesulfonylaminoethyl)-4-(3,4-methylenedioxybenzyl)homopiperazine]
inhibition in vivo at 1 mg/kg (trachea of a guinea pig): 45%
suppression of histamine-induced bronchial contraction (trachea of a guinea pig): 45%

Structure (SMILES): Cn1c(=O)c2[nH]cnc2n(C)c1=O [Aminophylline, aminophylline]
EC50 [4]: ≥ 200 µM
suppression of histamine-induced bronchial contraction (trachea of a guinea pig): 7%

Structure (SMILES): CCCCCCN(CCN)S(=O)(=O)c1cccc2cnccc12.Cl [Comparative compound (1), N-(2-aminoethyl)-N-hexyl-5-isoquinolinesulfonamide hydrochloride]
suppression of histamine-induced bronchial contraction (trachea of a guinea pig): 9%

Structure (SMILES): Cl.NC1CCCN(S(=O)(=O)c2cccc3cnccc23)C1 (stereo not shown) [Comparative compound (2), 1-(5-isoquinolinesulfonyl)-3-aminopiperidine hydrochloride]
suppression of histamine-induced bronchial contraction (trachea of a guinea pig): 12%

Structure (SMILES): CCCCCCN(CCN)S(=O)(=O)c1cccc2cnccc12 [N-(2-aminoethyl)-N-hexyl-5-isoquinolinesulfonamide]
bronchodilating activity [1]: bronchodilating activity
vasodilating activity [2]: vasodiletic activity

Structure (SMILES): N=C(N)NCCNS(=O)(=O)c1cccc2cnccc12 [N-(2-guanidinoethyl)-5-isoquinolinesulfonamide]
bronchodilating activity [1]: bronchodilating activity
vasodilating activity [2]: vasodiletic activity
